Data from US20230114728A1 (Venatorx Pharmaceuticals, Inc., priority 2019, published 2023).
In brackets after ≈: the same amount, converted by molar mass.

Assays:
Assay type in all cases: cell-based
N. gonorrhoeae WHO L = assay: Liquid broth MIC in Fastidious broth; details: Neisseria gonorrhoeae; N. gonorrhoeae strain WHO L; Fastidious broth; read-out: Minimum Inhibitory Concentration, N. gonorrhoeae WHO L
Summary of the method: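 Colonies were swabbed from chocolate agar after 24 h growth and standardised by optical density at 600 nm. Compounds were serially diluted twofold in Fastidious broth, and bacteria added to give 5×10^5 CFU/mL. After about 24 h at 36 °C in 5% CO2, the lowest concentration allowing under 10% growth was taken as MIC.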

P. aeruginosa ATCC 27853 = assay: Broth microdilution MIC in CAMHB; details: Pseudomonas aeruginosa, ATCC27853; MHB; read-out: Minimum Inhibitory Concentration, P. aeruginosa ATCC 27853
Summary of the method: (§1)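 CLSI broth microdilution in CAMHB: 2-fold compound dilutions inoculated at 2-8×10^5 CFU/mL from 3-5 h log-phase cultures. Incubated at 37 °C for 16-20 h (Enterobacteriaceae, Pseudomonas); MIC read visually as lowest concentration without growth. Strains include hyper-permeable and efflux-deficient mutants.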

[1] = test system: K. pneumoniae UMM producing SHV-5 and KPC-2; assay: Broth microdilution MIC in CAMHB; details: Klebsiella pneumoniae, read-out: Minimum Inhibitory Concentration, K. pneumoniae UMM
Summary of the method: as §1

[2] = test system: P. aeruginosa (ΔmexAB-oprM); assay: Broth microdilution MIC in CAMHB; details: Pseudomonas aeruginosa, read-out: Minimum Inhibitory Concentration, P. aeruginosa ΔmexAB-OprM
Summary of the method: as §1

E. coli ATCC 25922 = assay: Broth microdilution MIC in CAMHB; details: Escherichia coli, ATCC25922; E. coli ATCC 25922; MHB; read-out: Minimum Inhibitory Concentration, E. coli 25922
Summary of the method: as §1

E. coli D22 = assay: Broth microdilution MIC in CAMHB; details: Escherichia coli; E. coli D22 (hyper-permeable); MHB; read-out: Minimum Inhibitory Concentration, E. coli D22
Summary of the method: as §1

P. aeruginosa ATCC 35151 = assay: Broth microdilution MIC in CAMHB; details: Pseudomonas aeruginosa, ATCC35151; MHB; hyper-permeable strain; read-out: Minimum Inhibitory Concentration, P. aeruginosa ATCC 35151
Summary of the method: as §1

[3] = test system: K. pneumoniae SI-117 producing VIM-1; assay: Broth microdilution MIC in CAMHB; details: Klebsiella pneumoniae, read-out: Minimum Inhibitory Concentration, K. pneumoniae SI-117
Summary of the method: as §1

A. baumannii ATCC 19606 = assay: Broth microdilution MIC in CAMHB; details: Acinetobacter baumannii, ATCC19606; MHB; read-out: Minimum Inhibitory Concentration, A. baumannii ATCC 19606
Summary of the method: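 Per CLSI broth microdilution, colonies were grown 3-5 h at 37° C in cation-adjusted Mueller Hinton broth, then diluted to a starting inoculum of 2-8×10^5 CFU/mL against 2-fold serial compound dilutions. Plates were incubated 16-20 h at 37° C, and MIC was read visually as the lowest concentration with no growth.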

E. coli AG100A = assay: Broth microdilution MIC in CAMHB; details: Escherichia coli, read-out: Minimum Inhibitory Concentration, E. coli AG100A
Summary of the method: as §1

E. coli AG100 = assay: Broth microdilution MIC in CAMHB; details: Escherichia coli; E. coli AG100 (wild-type parent); MHB; read-out: Minimum Inhibitory Concentration, E. coli AG100
Summary of the method: as §1

[4] = test system: K. pneumoniae 848844 producing SHV-11 and KPC-2; assay: Broth microdilution MIC in CAMHB; details: Klebsiella pneumoniae, read-out: Minimum Inhibitory Concentration, K. pneumoniae 848844
Summary of the method: as §1

E. coli 901C = assay: Broth microdilution MIC in CAMHB; details: Escherichia coli; E. coli 901C (hyper-permeable); MHB; read-out: Minimum Inhibitory Concentration, E. coli 901C
Summary of the method: as §1

| SMILES | MIC (N. gonorrhoeae WHO L) [µg/mL] | MIC (P. aeruginosa ATCC 27853) [µg/mL] | MIC [1] [µg/mL] | MIC [2] [µg/mL] | MIC (E. coli ATCC 25922) [µg/mL] | MIC (E. coli D22) [µg/mL] | MIC (P. aeruginosa ATCC 35151) [µg/mL] | MIC [3] [µg/mL] | MIC (A. baumannii ATCC 19606) [µg/mL] | MIC (E. coli AG100A) [µg/mL] | MIC (E. coli AG100) [µg/mL] | MIC [4] [µg/mL] | MIC (E. coli 901C) [µg/mL] |
| --- | --- | --- | --- | --- | --- | --- | --- | --- | --- | --- | --- | --- | --- |
| O=C(O)c1cccc2c1OB(O)[C@@H](NC(=O)C(NC(=O)N1CCNC1=O)c1c(F)cc(O)cc1F)C2 (stereo partly drawn) [Example 156, (3R)-3-(2-(2,6-difluoro-4-hydroxyphenyl)-2-(2-oxoimidazolidine-1-carboxamido)acetamido)-2-hydroxy-3,4-dihydro-2H-benzo[e][1,2]oxaborinine-8-carboxylic acid] | > 64 | > 128 | 32 to 64 (≈ 63.5 to 127 µM) | 8 to 16 (≈ 15.9 to 31.7 µM) | 32 to 64 (≈ 63.5 to 127 µM) | 8 to 16 (≈ 15.9 to 31.7 µM) | 0.5 to 1 (≈ 0.992 to 1.98 µM) | 32 to 64 (≈ 63.5 to 127 µM) | > 128 | 2 to 4 (≈ 3.97 to 7.93 µM) | 32 to 64 (≈ 63.5 to 127 µM) | 32 to 64 (≈ 63.5 to 127 µM) | 0.5 to 1 (≈ 0.992 to 1.98 µM) |
| CCN1CCN(C(=O)NC(C(=O)N[C@H]2Cc3cccc(C(=O)O)c3OB2O)c2c(F)cc(C(=O)O)cc2F)C(=O)C1=O (stereo partly drawn) [Example 157, (3R)-3-(2-(4-carboxy-2,6-difluorophenyl)-2-(4-ethyl-2,3-dioxopiperazine-1-carboxamido)acetamido)-2-hydroxy-3,4-dihydro-2H-benzo[e][1,2]oxaborinine-8-carboxylic acid] | 4 to 8 (≈ 6.8 to 13.6 µM) | > 128 | 32 to 64 (≈ 54.4 to 109 µM) | 8 to 16 (≈ 13.6 to 27.2 µM) | 32 to 64 (≈ 54.4 to 109 µM) | 2 to 4 (≈ 3.4 to 6.8 µM) | 0.5 to 1 (≈ 0.85 to 1.7 µM) | > 128 | > 128 | 8 to 16 (≈ 13.6 to 27.2 µM) | 32 to 64 (≈ 54.4 to 109 µM) | > 128 | < 0.25 |
| CCN1CCN(C(=O)NC(C(=O)N[C@H]2Cc3cccc(C(=O)O)c3OB2O)c2cc(F)c(O)c(F)c2)C(=O)C1=O (stereo partly drawn) [Example 160, (3R)-3-(2-(3,5-difluoro-4-hydroxyphenyl)-2-(4-ethyl-2,3-dioxopiperazine-1-carboxamido)acetamido)-2-hydroxy-3,4-dihydro-2H-benzo[e][1,2]oxaborinine-8-carboxylic acid] | 16 to 32 (≈ 28.6 to 57.1 µM) | > 128 | 32 to 64 (≈ 57.1 to 114 µM) | 2 to 4 (≈ 3.57 to 7.14 µM) | 32 to 64 (≈ 57.1 to 114 µM) | 2 to 4 (≈ 3.57 to 7.14 µM) | < 0.25 | > 128 | > 128 | 2 to 4 (≈ 3.57 to 7.14 µM) | 32 to 64 (≈ 57.1 to 114 µM) | 32 to 64 (≈ 57.1 to 114 µM) | < 0.25 |
| NCCN1CCN(C(=O)NC(C(=O)N[C@H]2Cc3cccc(C(=O)O)c3OB2O)c2cc(F)c(O)c(Cl)c2)C(=O)C1=O (stereo partly drawn) [Example 163, (3R)-3-(2-(4-(2-aminoethyl)-2,3-dioxopiperazine-1-carboxamido)-2-(3-chloro-5-fluoro-4-hydroxyphenyl)acetamido)-2-hydroxy-3,4-dihydro-2H-benzo[e][1,2]oxaborinine-8-carboxylic acid] | > 64 | 32 to 64 (≈ 54.1 to 108 µM) | 32 to 64 (≈ 54.1 to 108 µM) | 2 to 4 (≈ 3.38 to 6.76 µM) | 32 to 64 (≈ 54.1 to 108 µM) | 8 to 16 (≈ 13.5 to 27 µM) | < 0.25 | > 128 | > 128 | 2 to 4 (≈ 3.38 to 6.76 µM) | 32 to 64 (≈ 54.1 to 108 µM) | > 128 | 0.5 to 1 (≈ 0.845 to 1.69 µM) |
| CCN1CCN(C(=O)NC(C(=O)N[C@H]2Cc3cccc(C(=O)O)c3OB2O)c2cc(F)c(O)c(Cl)c2)C(=O)C1=O (stereo partly drawn) [Example 164, (3R)-3-(2-(3-chloro-5-fluoro-4-hydroxyphenyl)-2-(4-ethyl-2,3-dioxopiperazine-1-carboxamido)acetamido)-2-hydroxy-3,4-dihydro-2H-benzo[e][1,2]oxaborinine-8-carboxylic acid] | 16 to 32 (≈ 27.7 to 55.5 µM) | > 128 | 32 to 64 (≈ 55.5 to 111 µM) | 2 to 4 (≈ 3.47 to 6.94 µM) | 32 to 64 (≈ 55.5 to 111 µM) | 2 to 4 (≈ 3.47 to 6.94 µM) | < 0.25 | > 128 | > 128 | 2 to 4 (≈ 3.47 to 6.94 µM) | 32 to 64 (≈ 55.5 to 111 µM) | > 128 | < 0.25 |
| CCN1CCN(C(=O)NC(C(=O)N[C@H]2Cc3cccc(C(=O)O)c3OB2O)c2cc(Cl)c(O)c(Cl)c2)C(=O)C1=O (stereo partly drawn) [Example 171, (3R)-3-(2-(3,5-dichloro-4-hydroxyphenyl)-2-(4-ethyl-2,3-dioxopiperazine-1-carboxamido)acetamido)-2-hydroxy-3,4-dihydro-2H-benzo[e][1,2]oxaborinine-8-carboxylic acid] | > 64 | > 128 | 32 to 64 (≈ 53.9 to 108 µM) | 2 to 4 (≈ 3.37 to 6.74 µM) | 32 to 64 (≈ 53.9 to 108 µM) | 2 to 4 (≈ 3.37 to 6.74 µM) | < 0.25 | > 128 | > 128 | 2 to 4 (≈ 3.37 to 6.74 µM) | 32 to 64 (≈ 53.9 to 108 µM) | > 128 | < 0.25 |
| CCN1CCN(C(=O)NC(C(=O)N[C@H]2Cc3cccc(C(=O)O)c3OB2O)c2cc(F)c(O)c(F)c2F)C(=O)C1=O (stereo partly drawn) [Example 172, (3R)-3-(2-(4-ethyl-2,3-dioxopiperazine-1-carboxamido)-2-(2,3,5-trifluoro-4-hydroxyphenyl)acetamido)-2-hydroxy-3,4-dihydro-2H-benzo[e][1,2]oxaborinine-8-carboxylic acid] | 4 to 8 (≈ 6.92 to 13.8 µM) | > 128 | 32 to 64 (≈ 55.3 to 111 µM) | 2 to 4 (≈ 3.46 to 6.92 µM) | 32 to 64 (≈ 55.3 to 111 µM) | 2 to 4 (≈ 3.46 to 6.92 µM) | < 0.25 | > 128 | > 128 | 2 to 4 (≈ 3.46 to 6.92 µM) | 8 to 16 (≈ 13.8 to 27.7 µM) | > 128 | < 0.25 |
| CCN1CCN(C(=O)NC(C(=O)N[C@H]2Cc3cccc(C(=O)O)c3OB2O)c2ccc(O)c(F)c2F)C(=O)C1=O (stereo partly drawn) [Example 173] | 16 to 32 (≈ 28.6 to 57.1 µM) | > 128 | 32 to 64 (≈ 57.1 to 114 µM) | 2 to 4 (≈ 3.57 to 7.14 µM) | 8 to 16 (≈ 14.3 to 28.6 µM) | 2 to 4 (≈ 3.57 to 7.14 µM) | 0.5 to 1 (≈ 0.892 to 1.78 µM) | 32 to 64 (≈ 57.1 to 114 µM) | > 128 | 2 to 4 (≈ 3.57 to 7.14 µM) | 8 to 16 (≈ 14.3 to 28.6 µM) | > 128 | < 0.25 |
| NCCN1CCN(C(=O)NC(C(=O)N[C@H]2Cc3cccc(C(=O)O)c3OB2O)c2c(F)c(F)c(O)c(F)c2F)C(=O)C1=O (stereo partly drawn) [Example 174, (3R)-3-(2-(4-(2-aminoethyl)-2,3-dioxopiperazine-1-carboxamido)-2-(2,3,5,6-tetrafluoro-4-hydroxyphenyl)acetamido)-2-hydroxy-3,4-dihydro-2H-benzo[e][1,2]oxaborinine-8-carboxylic acid] | 16 to 32 (≈ 26.2 to 52.4 µM) | > 128 | 32 to 64 (≈ 52.4 to 105 µM) | 8 to 16 (≈ 13.1 to 26.2 µM) | 32 to 64 (≈ 52.4 to 105 µM) | 2 to 4 (≈ 3.27 to 6.54 µM) | 0.5 to 1 (≈ 0.818 to 1.64 µM) | > 128 | > 128 | 2 to 4 (≈ 3.27 to 6.54 µM) | 8 to 16 (≈ 13.1 to 26.2 µM) | > 128 | 0.5 to 1 (≈ 0.818 to 1.64 µM) |
